{"source": "patent US12616655B2", "about": "“Topical antibiotic containing pharmaceutical composition for bacterial infections and wound healing” (Vishagan Vanangamudi Sulur, priority 2019, dated 2026)", "origin": "cited, not measured here", "key": {"[1]": {"conditions": "through intact human skin"}, "[2]": {"conditions": "at 22° C."}}, "note": "Where two headings read alike, the source gives them in different places.", "data": [{"smiles": "C/C(=C\\C(=O)OCCCCCCCCC(=O)O)C[C@@H]1OC[C@H](C[C@@H]2O[C@H]2[C@@H](C)[C@H](C)O)[C@@H](O)[C@H]1O", "note": "[Mupirocin]", "values": [{"measurement": "solubility", "setting": "in alcohol at 20° C.", "value": 500, "unit": "µg/mL"}, {"measurement": "solubility", "setting": "in water at 20° C.", "value": 1000, "unit": "µg/mL"}, {"measurement": "inhibition of protein and RNA synthesis", "setting": "Staphylococcus aureus", "value": "strongly inhibit"}, {"measurement": "Systemic absorption", "setting": "[1]", "value": "minimal"}, {"measurement": "pKa", "setting": "[2]", "value": 5}]}]}
